Results on three molecules are retold here after patent publication US5578639A, “PLA2 inhibitors and their use for inhibition of intestinal cholesterol absorption” (Warner-Lambert Company, priority 1995, dated 1996).

For one test, the system named is plasma lipids. Put plainly: Plasma lipids in cholesterol-fed rats after oral PLA2 inhibitor. Type of test: in vivo. The note with it: 100 mg/kg oral gavage, about 8 hours after start of feeding. On the procedure: Ultimately, agents that inhibit the absorption of dietary cholesterol should suppress postprandial increases in plasma cholesterol. This was tested with several. PLA2 inhibitors in cholesterol-fed rats. The general protocol consisted of preparing a carboxymethyl cellulose/Tween 20 dispersion of the compound of interest and administering it at a dose of 100 mg/kg by oral gavage to rats previously trained to meal-feed. Immediately following administration of the inhibitor, the rats were fed a lipid-rich meal of chow supplemented with cholesterol, peanut oil, and cholic acid.

The next test concerns the target T1, porcine pancreatic PLA2 (Sus scrofa, UniProt P00592).
T1 construct: purchased Sigma Chemical Company (St. Louis, Mo.); host or cells: porcine pancreas
The test can be described thus: Fluorescence assay of porcine pancreatic PLA2 inhibition in vitro. The format is biochemical. As to conditions: porcine pancreatic PLA2, in vitro; read-out: In Vitro IC50 (porc. panc. PLA2). The text has this: The IC50 values for inhibition of porcine pancreatic PLA2, in vitro, are included for comparison with the in vivo activities.
A sensitive fluorescence method was used to measure the activity of pancreatic phospholipase A2 (PLA2) in vitro. PLA2 hydrolyzes the ester bond linking fatty acids to the sn-2 position in glycerophospholipids. Several types of PLA2 exist, including those isolated from venoms, synovial fluid, platelets, immunoactive cell types and the pancreas. The pancreatic PLA2 was the subject of this experiment because of its fundamental role in promoting lipid absorption in the intestine.
PLA2 activity was detected by the loss of pyrene excimer fluorescence that occurs when (1-pyrenyl)decanoic acid is hydrolysed from the sn-2 position of 1,2-bis-(1-pyrenedecanoyl)sn-glycero-3-phosphocholine ((P10)2 PC) by the action of PLA2. The use of similar pyrene-labeled PC substrates to detect PLA2 activity has been described previously (Radvanyi F., Jordan L., Russo-Marie F., Bon C., "A sensitive and continuous fluorometric assay for phospholipase A2 using pyrene-labeled phospholipids in the presence of serum albumin." Anal. Biochem., 177:103-109 (1989)). The full photophysical basis for the assay is described elsewhere (Birks J. B., "Photophysics of Aromatic Molecules," Wiley Interscience, New York, pp 301-371 (1970)).
In brief, pyrene excimers are formed by the complexation of one pyrene moiety in the ground-state with one pyrene moiety in the excited state to form an excited-state dimer (excimer) which fluoresces at longer wavelengths (475 nm emission maximum) than the wavelength range in which excited-state pyrene monomers fluoresce (370-400 nm). Excimer formation is dependent on the concentration of pyrene moieties. (P10)2 PC emits excimer fluorescence almost exclusively due to the fixed juxtaposition of the pyrene chromophores. The substrate concentration is sufficiently dilute so that excimer formation between the products of PLA2 action, namely lysoPY10PC and the (1-pyrenyl)decanoic acid, is insignificant.
In general, this assay scheme should have been applicable to the study of any type of PLA2. However, since pancreatic PLA2 is unique from the other PLA2 's in that it operates almost exclusively against micellized PC, the PC substrate in this assay was micellized with 1 mM deoxycholic acid. The PC component of the micelles consisted of 5 μM (P10)2 PC substrate diluted with a 99-fold excess (495 μM) of 1-oleyl-2-palmityl phosphatidylcholine (OPPC). The OPPC was inert to PLA2 hydrolysis because it contained ether-linked fatty alkyl chains in place of the ester-linked fatty acyl chains of normal PC. OPPC was included to 1) dilute the micellar (P10)2 PC concentration thereby minimizing intermolecular excimer formation, and 2) preserve the integrity of the micelles against the action of PLA2 since nonspecific micelle disruption could lead to nonlinear kinetics and fluorescence changes independent of lipolysis.
Phospholipase A2 (porcine pancreas), bovine serum albumin (BSA) (fraction V, essentially fatty acid-free) and sodium deoxycholate were obtained from Sigma Chemical Company, (St. Louis, Mo.). 1-Oleyl-2-palmityl-DL-phosphatidylcholine (OPPC) was ordered from Serdary Research Laboratories, Inc. (London, Ont., Canada). 1,2-Bis-(1-pyrenedecanoyl)-sn-glycero-3-phosphatidylcholine ((P10)2 PC) was obtained from Molecular Probes, Inc. (Eugene, Oreg.).
HEPES buffer (SHE) contained 150 mM NaCl, 20 mM HEPES (N-[2-hydroxyethyl]piperazine-N'-[2-ethanesulfonic acid]) and 1 mM EDTA (ethylenediamine tetraacetic acid) at pH 8.0.
1 mM (P10)2 PC in chloroform was prepared by adding 1 mL chloroform to a vial containing 1 mg of (P10)2 PC, as shipped by Molecular Probes. The actual concentration was determined spectrophotometrically by diluting 10 μL of the chloroform solution in 2 mL of ethanol. The absorbance spectrum of the ethanol solution was measured between 380 nm to 280 nm (Beckman DU-64). […]

Test [1] relates to intestinal lipid absorption. The test can be described thus: Lymph-fistula rats, effect of PLA2 inhibitors on lymphatic lipid output. Type of test: in vivo, rat. As to conditions: FIGS. 10 and 11. An excerpt:
The intestinal lipid absorption pathway was isolated in the rat by inserting an infusion cannula in the proximal duodenum and implanting a second cannula in the mesenteric lymph vessel to intercept the lipoprotein output from the intestine. This lymph-fistula rat model was used to investigate the effect of pancreatic PLA2 inhibition, in situ, on intestinal absorption of infused lipid emulsions. In a typical experiment, cannulae were implanted the day before the experimental infusion. Following surgery, the animals were infused (2.5 mL/hr) with isotonic saline containing dextrose to flush the GI tract and obtain basal levels of lymphatic lipid output. On the day of the experiment, infusion of the dextrose recovery solution was continued for 1 hour to collect a basal lymph fraction. At the start of the next hour, the intake of the duodenal infusion cannula was switched to a lipid emulsion of isotonic saline containing safflower oil (59 mM), cholesterol (5.2 mM), PC (3.3 mM) and taurocholic acid (1.9 mM). One hour lymph fractions were collected until the end of the experiment. The lipid content (mass) of lymph fractions was determined by HPLC with a mass-sensitive, evaporative light-scattering detector. […]

The next test concerns cholesterol absorption. The test can be described thus: Cholesterol-fed hamster model, plasma and liver cholesterol / cholesterol absorption. The format is in vivo. As to conditions: FIG. 13. The text has this:
Neomycin and β-sitosterol (Cytellin) have been used as cholesterol absorption inhibitors to treat hypercholesterolemic patients (Kesaniemi, et al., Serum cholesterol lowering by inhibition of cholesterol absorption, Atherosclerosis, VIII:791-794 (1989)). The mechanisms by which these agents inhibit intestinal cholesterol absorption are unknown. Relatively large doses must be administered (1.5-2 g/day neomycin, 3-50 g/day β-sitosterol) to achieve up to 25% reductions in serum cholesterol levels. The advantages of PLA2 inhibitors over these agents is that the mechanism of cholesterol absorption inhibition is known and sufficiently potent PLA2 inhibitors could be administered in much smaller doses (potentially fewer side effects and better patient compliance) to achieve greater reductions in serum cholesterol levels. For example, in a cholesterol-fed hamster model, administration of 100 mg/kg of the phospholipase A2 inhibitor methyl-[2-(hexadecyloxy)phenyl]methyl ester phosphonic acid (Compound D in FIG. 13) produced reductions in plasma and liver cholesterol levels nearly equivalent to those obtained with a ten-fold higher dose (i.e., 1000 mg/kg) of β-sitosterol. Pancreatic PLA2 inhibitors represent a significant advancement over current agents, the use of which has already proven cholesterol absorption inhibitors to be a beneficial and effective therapy for hypercholesterolemia.

For another test, the system named is serum cholesterol. As to conditions: neomycin 1.5-2 g/day; β-sitosterol 3-50 g/day; cited from earlier work.
Test [2] has as its system Caco-2 cells. The test can be described thus: Caco-2 retinol absorption. As to conditions: 10 μM retinol; FIG. 6. The format is cell-based, human. How it is done: (§1) Caco-2 cells were used as a tissue culture model of the human intestinal epithelium to compare the effects of phosphatidylcholine and lysophosphatidylcholine on lipid absorption and the subsequent re-esterification and secretion of micelle-derived lipids.
The micelle preparations used in the experiments described for FIG. 4 also contained 10 μM retinol. Retinol was included to determine whether the influence of micellar phospholipid composition on cholesterol absorption extended to other fatty alcohols. Like cholesterol, retinol is a fatty alcohol that is absorbed from the diet by the intestinal epithelium and passed into the circulation by an analogous transport process involving fatty acylation and assembly of the resultant retinyl esters into chylomicrons (Blomhoff R., Green M. H., Berg T., Norum K. R., "Transport and storage of vitamin A." Science, 250:399-404 (1990)).

The subject of test [3] is Caco-2 cells. Put plainly: Caco-2 lipase studies. The format is cell-based, human. On the procedure: as §1
This was tested with the Caco-2 cells. Taurocholic acid micelles containing phosphatidylcholine, triolein, cholesteryl oleate and cholesterol were placed in the medium covering the apical surface of Caco-2 cell monolayers. Depending on the neutral lipid lipase being studied, either the triolein or cholesteryl oleate was tritium-labeled. The time course of radiolabeled lipid uptake and metabolism was studied in the absence or presence of the neutral lipid lipases, with or without PLA2. The results are in agreement with those presented by Borgstrom and coworkers. […] The results for micellar tri[^3 H]olein uptake indicated a similar but less severe dependence of triglyceride lipase activity on PLA2.

Test [4] has as its system Caco-2 cells. The test can be described thus: Caco-2 phospholipase A2-dependent cholesterol absorption, time course. As to conditions: for suppression of cholesterol absorption by PC, effect of PLA2: porcine pancreatic PLA2, PC-containing micelles. The format is cell-based, human.

T1 sequence (P00592 23-146): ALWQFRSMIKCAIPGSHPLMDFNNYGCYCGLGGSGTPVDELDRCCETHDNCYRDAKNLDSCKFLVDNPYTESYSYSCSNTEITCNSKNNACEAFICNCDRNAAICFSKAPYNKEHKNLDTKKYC

By IC50 is commonly meant the concentration that gives 50% inhibition. In the case of `CCCCCCCCCCCn1nnn(Cc2ccccc2)c1=N` [Compound B, 1,4-dihydro-1-(phenylmethyl)-4-undecyl-5H-tetrazol-5-imine], in the test on plasma lipids, the “% Change in plasma lipids vs. Control: HDL Chol.” value is 9%, the “% Change in plasma lipids vs. Control: Total Chol.” value is listed as -32% and the “% Change in plasma lipids vs. Control: non-HDL Chol.” value is recorded as -44%. For the same molecule, the IC50 at porcine pancreatic PLA2 was 4 µM. Also, in test [1], the “lipid absorption in rats” value was “reduced”.
With `CC[C@H](CC[C@@H](C)[C@H]1CC[C@H]2[C@@H]3CC=C4C[C@@H](O)CC[C@]4(C)[C@H]3CC[C@]12C)C(C)C` [β-sitosterol], in the test with cholesterol absorption, the “cholesterol absorption in hamsters” value is “reduced”. In the test with serum cholesterol, the “reductions in serum cholesterol levels” value is reported as “up to 25%”.
In the case of “PLA2: porcine pancreatic phospholipase A2”, the “retinol uptake and esterification” value in the test on Caco-2 cells [2] was “not affected”. For the same molecule, in the test on Caco-2 cells [3] (FIGS. 7 and 8), the “cellular absorption of fatty acids” value is on record as “dramatic increase”. In the test with Caco-2 cells [3] (triglyceride lipase with or without PLA2, FIG. 8), the “cellular accumulation of tritiated lipid from tri[3H]olein” value was “the greatest cellular accumulation of tritiated lipid occurred in the incubation containing both lipases together”. Moreover, in the test with Caco-2 cells [3] (with or without carboxyl ester lipase and PLA2, FIG. 7), the “entry of micellar [3H]cholesteryl oleate label into cells” value was “did not enter the cells unless both carboxyl ester lipase and PLA2 were included in the incubation”. Also, the “[3H]oleate-labeled PC synthesis relative to phospholipid-free micelles” value in the test with Caco-2 cells [4] (6 hours, micelles with lyso-PC, or PC with PLA2) is on record as “slight decrease”. Also, in the test on Caco-2 cells [4] (12 hours, PC in the presence of PLA2), the “cell [14C]cholesteryl ester relative to incubations without micellar phospholipid” value was found to be 60%. For the same molecule, the “cell-associated free [14C]cholesterol relative to level in the absence of PC” value in the test on Caco-2 cells [4] (PLA2 added to PC-containing micelles) was 76%. The “suppression of cholesterol absorption by PC, effect of PLA2” value was “partially reversed the inhibitory effects of micellar PC” in the test on Caco-2 cells [4]; “reverses the suppression of cholesterol absorption and metabolism” in the test with Caco-2 cells [4] (listed as pancreatic phospholipase A2).
